{
  "source": "paper PMC8414802",
  "about": "“Hair Cell Generation in Cochlear Culture Models Mediated by Novel γ-Secretase Inhibitors” (Frontiers in Cell and Developmental Biology, 2021)",
  "key": {"[1]": {"test_system": "hair cells in sisomicin-treated rat OC explants", "test": "OC explants after sisomicin ototoxic damage", "format": "cell-based", "settings": "sisomicin 200 μM 2 h", "experimental": "To induce ototoxic damage, medium was removed from the OC cultures on the day after dissection and either 200 μM sisomicin (Sigma) in full otic medium, or 10^8 cfu/ml Streptococcus pneumoniae (described below) in ampicillin-free and FBS-free otic medium were added under the transwell membrane (lower compartment) of the cultivation system. After 2 h of exposure to the ototoxic insult, OCs were carefully washed 3 times and culture was continued for 4 days in fresh full otic medium.\nFollowing culture, explants were washed (PBS) and fixed for 10 min at room temperature (RT) with 4% paraformaldehyde (PFA). […]\nDividing cells were labeled with, 5-ethyl-2′-deoxyuridine (EdU) and detected with Click-it Plus kit (Life Technologies). […]\nImage processing was performed with the open-source image processing software FIJI, version 2.0 ([Schindelin et al., 2012]). Hair cells were quantified by counting Pou4f3 or Myo7a positive cells of the organ of Corti at three random microscopic fields for each cochlear region (base, middle, and apex) covering in total at least 1,200 μm. The number of hair cells (IHCs and OHCs) is expressed as unit per 100 μm.\nFIGURE 3 GSI treatment after ototoxic damage. […] (B) Quantification of OHCs in sisomicin-treated explants (2 h; 200 μM), 4 days after ototoxic insult, and cultured in presence or absence of CPD3. […] (F) OHC quantification after bacteria-induced damage. […]"}, "[2]": {"test_system": "Atoh1, Pou4f3, Myo7a expression in otic spheres", "test": "Otic sphere assay, hair cell gene expression", "format": "cell-based, mouse", "experimental": "The generation of otic spheres followed previously described protocols ([Oshima et al., 2009]) with modifications during differentiation phase to test GSIs. Briefly, OCs were dissociated and single cells were deposited in ultralow-cluster plates (Corning) and expanded in “full otic medium” consisting of DMEM/F12, supplemented with N2, B27 (Thermo Fisher), EGF (20 ng/ml; Chemicon), bFGF (10 ng/ml; Chemicon), IGF-1 (50 ng/ml; Chemicon), and heparan sulfate (50 ng/ml; Sigma-Aldrich). After culturing for 3–4 days at 37°C, spheres were collected, plated in cell culture-treated 96 well-plate and cultured in DMEM/F12, supplemented with N2, B27 with/without GSIs for 7 days after which they were lysed for RNA extraction.\nCells or tissue were lysed using RLT Lysis Buffer (Qiagen) and high purity RNA was prepared on the MagNA Pure instrument using MagNA Pure 96 Cellular RNA LV Kit (Roche). Reagents from Thermo Fisher were used for cDNA synthesis by reverse transcription using random hexamers. Resulting cDNA was RNAse H treated and amplified by TaqMan GEX mastermix and PCR primers and probes for human ATOH1 (Hs00944192_s1) and TBP (Hs00427620_m1), mouse Tbp (Mm00446971_m1), Atoh1 (Mm00476035_s1), Hes5 (Mm00439311_g1), Pouf4s (Mm04213795_s1), and Myo7a (Mm01274015_m1) on the Applied Biosystems QuantStudio 7 Flex Real-Time PCR System. Normalized to Tbp, relative gene expression fold-change was quantified and compared between experimental and control conditions by ΔΔCt calculation.\nCPD3 and CPD8 were further compared for their potency to induce hair cell gene expression in otic sphere assays ([Oshima et al., 2009]). Cells were first expanded in presence of growth factors, and in a second step differentiated by growth factor removal and GSI treatment. […] This indicated a modest advantage of CPD3 in eliciting expression of the early hair cell marker Atoh1, but similar potency on expression of some later markers of HC differentiation, Pou4f3 and Myo7a (Figure 2A). From the results of two screening assays, CPD3 was selected for additional characterization studies based on its lower IC50 to induce Atoh1/ATOH1 expression in the otic spheres and LS174T cells, respectively."}},
  "note": "pIC50: −log10 of the molar value.",
  "data": [
    {"smiles": "COc1ccc2c(c1)N1CCC(C)(C)C1=CC(=O)[C@H]2NC(=O)[C@H](C)NC(=O)CCC(F)(F)F", "note": "[CPD3]", "values": [
      {"measurement": "Increase of OHC numbers after sisomicin", "setting": "[1]; 4 days culture, apex", "value": "not statistically significant"},
      {"measurement": "Pou4f3/Sox2 double-positive cells after sisomicin", "setting": "[1]; 4 days, p = 0.057", "value": "observed only in the apical domain"},
      {"measurement": "pIC50", "setting": "[2]; Mus musculus, 168 h, 7 days differentiation with GSI, read-out: IC50 for Atoh1 upregulation", "value": 8.17},
      {"measurement": "Induction of Atoh1, Pou4f3 and Myo7a expression", "setting": "[2]; dose-responsive, p < 0.05", "value": "significantly induced"}
    ]}
  ]
}
